Patent US7538096B2, “Treatment and prevention of abnormal cellular proliferation” (The General Hospital Corporation, priority 2004, dated 2009)
Like-named read-outs stand apart in the source and are kept apart here.

Columns and labels:
[1] = test system: A549 (non-small cell lung carcinoma) cell tumor; test: A549 cell tumor growth in SCID mice (FIGS. 6-8); format: in vivo; details: dose dependent
[2] = test system: DMS79 (small cell lung carcinoma) cell tumor; test: DMS79 cell tumor growth in SCID mice (FIGS. 9-10); format: in vivo; details: dose dependent
[3] = test system: HCT116 (colon cancer) cell tumor; test: HCT116 cell tumor growth in SCID mice (FIGS. 11-12); format: in vivo; details: dose dependent
coagulation [4] = test: coagulation time (FIG. 13); details: for coagulation time: FIG. 13
[5] = histology of tumor tissue and organs from SCID mice bearing A549 cell tumor (FIGS. 14-18); format: in vivo
tumor grown in SCID mice = test: apoptosis index in tumor grown in SCID mice (FIG. 19); format: in vivo
Rb = test: expression of Rb gene product in A549 cell tumor tissue (FIG. 21); format: in vivo; details: A549 cell tumor tissue grown in SCID mice, dose dependent, lesser effect than on p27/KIP1, FIG. 21
E2F1 = test: expression of E2F1 protein in A549 cell tumor tissue (FIG. 22); format: in vivo; details: A549 cell tumor tissue grown in SCID mice, dose dependent
fibroblast [6] = test: fibroblast proliferation; format: cell-based; details: unpublished data
coagulation [7] = test: anticoagulant property (no test named)
p27/KIP1 = details: A549 cell tumor tissue grown in SCID mice, dose dependent, FIG. 20
[8] = test system: pulmonary fibrosis in response to bleomycin; test: pulmonary fibrosis in the rat in response to bleomycin; format: in vivo
fibroblast [9] = details: Dahlberg et al. Am Rev. Respir. Dis. 143:A357, 1993; cited from earlier work
[10] = test system: pulmonary artery smooth muscle cell; details: in vivo, FIG. 4
[11] = test system: pulmonary hypertension induced by hypoxia; details: pig lung, FIG. 5
[12] = test system: bovine pulmonary artery smooth muscle cells; details: in vitro, in comparison to non-acylated heparin fragments

Question: For “O-butanoylated LMW Heparin [butanoylated heparin]”, which tumor growth ([1]; FIG. 6) is on record?
Answer: Its tumor growth is “significantly inhibited”.

Question: What about the tumor weight ([1]; FIG. 7) of the same substance?
Answer: Its tumor weight is “significantly decreased”.

Question: And the “percent inhibition of tumor growth” value ([1]; FIG. 8)?
Answer: Its value is “significantly inhibited”.

Question: What about the tumor growth ([2]; FIG. 9) of the same substance?
Answer: Its tumor growth is “significantly inhibited”.

Question: And the tumor weight ([2]; FIG. 10)?
Answer: Its tumor weight is “significantly decreased”.

Question: And the tumor growth ([3]; FIG. 11)?
Answer: Its tumor growth is “significantly inhibited”.

Question: What about the tumor growth ([3]; FIG. 12) of the same substance?
Answer: Its tumor growth is “significantly inhibited”.

Question: What about the coagulation time (coagulation [4]) of the same substance?
Answer: Its coagulation time is “no significant effect”.

Question: And the anticoagulant effects (coagulation [4]; compared to non-acylated controls, FIGS. 13 and 14)?
Answer: The anticoagulant effects was “very low”.

Question: And the “toxic effect on heart, liver, kidney, and lung” value ([5]; animals tested, FIG. 15-18)?
Answer: Its value is “no toxic effect”.

Question: And the apoptosis index (tumor grown in SCID mice)?
Answer: The apoptosis index was “induction of apoptosis”.

Question: And the “expression of Rb gene product” value (Rb)?
Answer: The value was “decreased”.

Question: And the “expression of E2F1 protein” value (E2F1)?
Answer: The value was “significantly inhibited”.

Question: And the fibroblast proliferation (fibroblast [6])?
Answer: The fibroblast proliferation was “can also inhibit”.

Question: And the anticoagulant property (coagulation [7])?
Answer: The anticoagulant property was “virtually no”.

Question: What about the “expression of p27/KIP1 gene product” value (p27/KIP1) of the same substance?
Answer: The value was “significantly inhibited”.

Question: Which results are given for “heparin [Native heparin, reference compound]”?
Answer: coagulation time (coagulation [4]): increased; hemorrhage in A549 cell tumor tissue (histology) ([5]; 100 mg/kg, SCID mice, FIG. 14): Hemorrhage was detected; apoptosis index (tumor grown in SCID mice): significantly induces apoptosis; pulmonary fibrosis [8]: can inhibit; fibroblast proliferation (fibroblast [9]): can inhibit

Question: With “O-Hexanoyl derivative of periodate-oxidized heparin fragments [hexanoylated heparin]” as the substance, how does the fibroblast proliferation (fibroblast [6]) read?
Answer: The fibroblast proliferation was “can also inhibit”.

Question: What about the “pulmonary artery smooth muscle cell proliferation” value [10] of the same substance?
Answer: The value was “significantly inhibited”.

Question: And the “development of pulmonary hypertension” value [11]?
Answer: The value was “significantly inhibited”.

Question: What about the antiproliferative effect [12] of the same substance?
Answer: The antiproliferative effect was “significantly enhanced”.
